Assay results as given in patent publication US20230146233A1, “A CLASS OF POLYCYCLIC COMPOUNDS INHIBITING RNA HELICASE DHX33 AND THE APPLICATION THEREOF” (Shenzhen KeYe Life Technologies, Co., Ltd, priority 2020, published 2023).

What follows are compounds tested on U251-MG cells (assay: Half-maximal cell-inhibitory concentration on U251-MG cells (CCK-8)). Conditions: Homo sapiens, U-251, U251-MG cells (DHX33-overexpressing cancer cell strain), 48 hours, read-out: IC50 (half-maximal inhibitory concentrations of compounds on U251-MG cells).
Assay type: cell-based
Experimental: U251-MG cells were purchased from the cell bank of the Chinese Academy of Sciences. Cells were cultured in MEM medium containing 10% fetal bovine serum (FBS), 2 mM L-glutammie, streptomycmn and penicillin. The growth conditions were set as follows: a humidified cell incubator (37° C., 5% CO2). Cells were passaged every 3 days and were discarded after 10 passages.
U251-MG cells (a […]-overexpressing cancer cell strain) were seeded on a 96-well plate at 1×10^4 cells/100 μl/well. After the cells were completely attached, the compounds were added to the cell culture medium at a concentration of 5 nM, 10 nM, 25 nM, 50 nM, 100 nM, […], 500 nM, 1000 nM, 2000 nM, […] or 20 μM, and the resulting mixture was uniformly mixed with a multichannel pipette. After the cells were incubated with the compound for 48 hours, CCK-8 reagent (Yeasen Biotechnology (Shanghai) Co., Ltd.) was added to the medium in the 96-well plate in accordance with the standard procedure. After being incubated for 2 hours, the plate was read with a microplate reader (OD=450 nm). The experiment was repeated three times, the inhibition curve of the compound at different concentrations was plotted, and the half-maximal inhibitory concentration (IC50) of the compound was calculated.

Row | Structure (SMILES) | IC50
1 | COc1ccnc2nc(/C(C#N)=C/c3cc(C)n(-c4sc(C)c(C)c4C#N)c3C)[nH]c12 [AB24310, (E)-2-(3-(2-cyano-2-(7-methoxy-1H-imidazo[4,5-b]pyridin-2-yl)vinyl)-2,5-dimethyl-1H-pyrrol-1-yl)-4,5-dimethylthiophene-3-carbonitrile] | 5 to 20 µM
2 | COC(=O)c1cc(C)sc1-n1c(C)cc(/C=C(\C#N)c2nc3cc(OC)ncc3[nH]2)c1C [AB24311, methyl (E)-2-(3-(2-cyano-2-(6-methoxy-3H-imidazo[4,5-c]pyridin-2-yl)vinyl)-2,5-dimethyl-1H-pyrrol-1-yl)-5-methylthiophene-3-carboxylate] | < 0.1 µM
3 | COc1cc2nc(/C(C#N)=C/c3cc(C)n(-c4sc(C)cc4C(N)=O)c3C)[nH]c2cn1 [AB24313, (E)-2-(3-(2-cyano-2-(6-methoxy-3H-imidazo[4,5-c]pyridin-2-yl)vinyl)-2,5-dimethyl-1H-pyrrol-1-yl)-5-methylthiophene-3-carboxamide] | 0.1 to 1 µM
4 | COC(=O)c1c(-n2c(C)cc(/C=C(\C#N)c3nc4cc(OC)ncc4[nH]3)c2C)sc(C)c1C [AB24316] | 0.1 to 1 µM
5 | CCc1cc(C#N)c(-n2c(C)cc(/C=C(\C#N)c3nc4cc(OC)ncc4[nH]3)c2C)s1 [AB24317, (E)-2-(3-(2-cyano-2-(6-methoxy-3H-imidazo[4,5-c]pyridin-2-yl)vinyl)-2,5-dimethyl-1H-pyrrol-1-yl)-5-ethylthiophene-3-carbonitrile] | < 0.1 µM
6 | COc1cc2nc(/C(C#N)=C/c3cc(C)n(-c4sc(C)nc4C)c3C)[nH]c2cn1 [AB24319] | 0.1 to 1 µM
7 | CCOC(=O)c1cc(C#N)c(-n2c(C)cc(/C=C(\C#N)c3nc4cc(OC)ncc4[nH]3)c2C)s1 [AB24320] | 1 to 5 µM
8 | COc1cc2nc(/C(C#N)=C/c3cc(C)n(-c4sc(Br)cc4C#N)c3C)[nH]c2cn1 [AB24323, (E)-5-bromo-2-(3-(2-cyano-2-(6-methoxy-3H-imidazo[4,5-c]pyridin-2-yl)vinyl)-2,5-dimethyl-1H-pyrrol-1-yl)thiophene-3-carbonitrile] | < 0.1 µM
9 | COc1cc2nc(/C(C#N)=C/c3cc(C)n(-c4sc(C5CC5)cc4C#N)c3C)[nH]c2cn1 [AB24324, (E)-2-(3-(2-cyano-2-(6-methoxy-3H-imidazo[4,5-c]pyridin-2-yl)vinyl)-2,5-dimethyl-1H-pyrrol-1-yl)-5-cyclopropylthiophene-3-carbonitrile] | < 0.1 µM
10 | COc1cc2nc(/C(C#N)=C/c3cc(C)n(-c4sc(C(C)C)cc4C#N)c3C)[nH]c2cn1 [AB24325, (E)-2-(3-(2-cyano-2-(6-methoxy-3H-imidazo[4,5-c]pyridin-2-yl)vinyl)-2,5-dimethyl-1H-pyrrol-1-yl)-5-isopropylthiophene-3-carbonitrile] | 0.1 to 1 µM
11 | COc1cc2nc(/C(C#N)=C/c3cc(C)n(-c4sc(C(C)(C)C)cc4C#N)c3C)[nH]c2cn1 [AB24326] | 0.1 to 1 µM
12 | COc1cc2nc(/C(C#N)=C/c3cc(C)n(-c4sc(Cc5ccccc5)cc4C#N)c3C)[nH]c2cn1 [AB24328, (E)-5-benzyl-2-(3-(2-cyano-2-(6-methoxy-3H-imidazo[4,5-c]pyridin-2-yl)vinyl)-2,5-dimethyl-1H-pyrrol-1-yl)thiophene-3-carbonitrile] | 0.1 to 1 µM
13 | COc1cnc2[nH]c(/C(C#N)=C/c3cc(C)n(-c4sc(C)cc4C#N)c3C)nc2c1 [AB24333, (E)-2-(3-(2-cyano-2-(6-methoxy-3H-imidazo[4,5-b]pyridin-2-yl)vinyl)-2,5-dimethyl-1H-pyrrol-1-yl)-5-methylthiophene-3-carbonitrile] | < 0.1 µM
14 | COc1cc2nc(/C(C#N)=C/c3cnn(-c4sc(C)cc4C#N)c3C)[nH]c2cn1 [AB24334, (E)-2-(4-(2-cyano-2-(6-methoxy-3H-imidazo[4,5-c]pyridin-2-yl)vinyl)-5-methyl-1H-pyrazol-1-yl)-5-methylthiophene-3-carbonitrile] | 0.1 to 1 µM
15 | COc1cc2nc(/C(C#N)=C/c3cc(C)n(-c4sc(-c5cccnc5)cc4C#N)c3C)[nH]c2cn1 [AB24337] | 1 to 5 µM
16 | COc1cc2nc(/C(C#N)=C/c3cc(C)n(-c4sc(-c5ccncc5)cc4C#N)c3C)[nH]c2cn1 [AB24338] | 1 to 5 µM
17 | Cc1cc(C#N)c(-n2c(C)cc(/C=C(\C#N)c3nc4cc(Cl)ncc4[nH]3)c2C)s1 [AB24341, (E)-2-(3-(2-(6-chloro-3H-imidazo[4,5-c]pyridin-2-yl)-2-cyanovinyl)-2,5-dimethyl-1H-pyrrol-1-yl)-5-methylthiophene-3-carbonitrile] | < 0.1 µM

Row | Structure (SMILES) | IC50
18 | COc1cc2cc(/C(C#N)=C/c3cc(C)n(-c4sc(C)cc4C#N)c3C)[nH]c2cn1 [AB24342, (Z)-2-(3-(2-cyano-2-(5-methoxy-1H-pyrrolo[2,3-c]pyridin-2-yl)vinyl)-2,5-dimethyl-1H-pyrrol-1-yl)-5-methylthiophene-3-carbonitrile] | 0.1 to 1 µM
19 | COC(=O)c1nc(C)sc1-n1c(C)cc(/C=C(\C#N)c2nc3cc(OC)ncc3[nH]2)c1C [AB24345] | 0.1 to 1 µM
20 | COc1cc2nc(/C(C#N)=C(\C)c3cc(C)n(-c4sc(C)cc4C#N)c3C)[nH]c2cn1 [AB24347, (E)-2-(3-(1-cyano-1-(6-methoxy-3H-imidazo[4,5-c]pyridin-2-yl)prop-1-en-2-yl)-2,5-dimethyl-1H-pyrrol-1-yl)-5-methylthiophene-3-carbonitrile] | 0.1 to 1 µM
21 | COc1cc2nc(/C(C#N)=C/c3cc(C)n(-c4sc(C)nc4C#N)c3C)[nH]c2cn1 [AB24348, (E)-5-(3-(2-cyano-2-(6-methoxy-3H-imidazo[4,5-c]pyridin-2-yl)vinyl)-2,5-dimethyl-1H-pyrrol-1-yl)-2-methylthiazole-4-carbonitrile] | < 0.1 µM
22 | COc1cc2nc(/C(C#N)=C/c3cc(C)n(-c4sc(Cl)cc4C#N)c3C)[nH]c2cn1 [AB24349] | < 0.1 µM
23 | COc1cc2nc(/C(C#N)=C/c3cc(C)n(-c4sc(C)cc4C#N)c3C)n(C)c2cn1 [AB24352, (E)-2-(3-(2-cyano-2-(6-methoxy-3-methyl-3H-imidazo[4,5-c]pyridin-2-yl)vinyl)-2,5-dimethyl-1H-pyrrol-1-yl)-5-methylthiophene-3-carbonitrile] | 0.1 to 1 µM
24 | Cc1cc(C#N)c(-n2c(C)cc(/C=C(\C#N)c3nc4cc(N(C)C)ncc4[nH]3)c2C)s1 [AB24355, (E)-2-(3-(2-cyano-2-(6-(dimethylamino)-3H-imidazo[4,5-c]pyridin-2-yl)vinyl)-2,5-dimethyl-1H-pyrrol-1-yl)-5-methylthiophene-3-carbonitrile] | < 0.1 µM
25 | COc1ccc2c(c1)[nH]c1cc(-c3cc(C)n(-c4sc(C)cc4C#N)c3C)c(C)cc12 [AB24374, 2-(3-(7-methoxy-3-methyl-9H-carbazol-2-yl)-2,5-dimethyl-1H-pyrrol-1-yl)-5-methylthiophene-3-carbonitrile] | 5 to 20 µM
26 | COc1ccc2[nH]c3cc(-c4cc(C)n(-c5sc(C)cc5C#N)c4C)ccc3c2c1 [AB24375, 2-(3-(6-methoxy-9H-carbazol-2-yl)-2,5-dimethyl-1H-pyrrol-1-yl)-5-methylthiophene-3-carbonitrile] | 5 to 20 µM
27 | COc1ccc2nc3cc(-c4cc(C)n(-c5sc(C)cc5C#N)c4C)ccc3n2c1 [AB24385, 2-(3-(2-methoxybenzo[4,5]imidazo[1,2-a]pyridin-7-yl)-2,5-dimethyl-1H-pyrrol-1-yl)-5-methylthiophene-3-carbonitrile] | 1 to 5 µM
28 | COc1cc2nc(/C(C#N)=C/c3cc(C)n(Cc4ccco4)c3C)[nH]c2cn1 [AB24397, (E)-3-(1-(furan-2-ylmethyl)-2,5-dimethyl-1H-pyrrol-3-yl)-2-(6-methoxy-3H-imidazo[4,5-c]pyridin-2-yl)acrylonitrile] | < 0.1 µM
29 | COc1cc2nc(/C(C#N)=C/c3cc(C)n(Cc4ccccc4)c3C)[nH]c2cn1 [AB24398, (E)-3-(1-benzyl-2,5-dimethyl-1H-pyrrol-3-yl)-2-(6-methoxy-3H-imidazo[4,5-c]pyridin-2-yl)acrylonitrile] | < 0.1 µM
30 | COc1cc2nc(NC(=O)c3cc(C)n(-c4sc(C)nc4C#N)c3C)[nH]c2cn1 [AB29502, 1-(4-cyano-2-methylthiazol-5-yl)-N-(6-methoxy-3H-imidazo[4,5-c]pyridin-2-yl)-2,5-dimethyl-1H-pyrrole-3-carboxamide] | 0.1 to 1 µM
31 | COc1ccc2nc(NC(=O)c3cc(C)n(-c4sc(C)nc4C)c3C)[nH]c2c1 [AB29505, 1-(2,4-dimethylthiazol-5-yl)-N-(6-methoxy-1H-benzo[d]imidazol-2-yl)-2,5-dimethyl-1H-pyrrole-3-carboxamide] | 0.1 to 1 µM
32 | COc1cc2nc(/C(C#N)=C/c3cc(C)n(Cc4ccccn4)c3C)[nH]c2cn1 [AB29507, (E)-3-(2,5-dimethyl-1-(pyridin-2-ylmethyl)-1H-pyrrol-3-yl)-2-(6-methoxy-3H-imidazo[4,5-c]pyridin-2-yl)acrylonitrile] | < 0.1 µM
33 | COc1cc2nc(/C(C#N)=C/c3cc(C)n(Cc4cnccn4)c3C)[nH]c2cn1 [AB29508, (E)-3-(2,5-dimethyl-1-(pyrazin-2-ylmethyl)-1H-pyrrol-3-yl)-2-(6-methoxy-3H-imidazo[4,5-c]pyridin-2-yl)acrylonitrile] | < 0.1 µM
34 | COc1ccc2nc(NC(=O)c3cc(C)n(-c4sc(C)nc4C#N)c3C)[nH]c2c1 [AB29509, 1-(4-cyano-2-methylthiazol-5-yl)-N-(6-methoxy-1H-benzo[d]imidazol-2-yl)-2,5-dimethyl-1H-pyrrole-3-carboxamide] | 0.1 to 1 µM
